Test results reported in US6380263B1, “6-substituted pyrimidine 3-oxides for promoting pigmentation of the skin/hair” (Societe L'Oreal, priority 1996, dated 2002).

Tests used:
[1] = system: purified fungal tyrosinase (EC 1.14.18.1); test: Modulation of tyrosinase activity (dopachrome formation from L-tyrosine, spectrophotometry at 475 nm); assay type: biochemical; conditions: 100 μl of 1 mM derivative solution (PBS/1% ethanol) in 1000 μl mixture; substrate L-tyrosine; 37° C.; at least 30 minutes
Method: In order to determine the activity of the pyrimidine derivatives substituted in position 6, the simple and rapid technique is employed that entails measurement by incubating an optionally purified tyrosinase and one of its substrates in a suitable medium in the presence of a test compound, and then comparing the measurements taken with the results of identical measurements taken during the incubation of optionally purified tyrosinase with one of its substrates in the absence of the test compound.
A purified tyrosinase was incubated in the presence of one of its substrates in a suitable medium, in the presence or absence of a pyrimidine 3-oxide derivative, substituted in position 6. The activity of the enzyme was evaluated by measuring the amount of a product of conversion of the substrate formed during the reaction. The result obtained in the presence of a derivative was compared with the result obtained in the absence of a derivative.
The substrate used was L-tyrosine (marketed by Sigma), a stock solution of which was prepared in phosphate-buffered saline (PBS) at a concentration of 0.5 mM.
The enzyme used was a purified fungal tyrosinase (EC 1.14.18.1) marketed by Sigma. A stock solution of this enzyme was prepared in PBS at a concentration of 5 mg/ml, which represents a concentration of about 19,500 international units of tyrosinase per milliliter.
The product of conversion of the tyrosine by tyrosinase, dopachrome, was measured by spectrophotometry at a wavelength of 475 nm using a Perkin Elmer type apparatus.
The derivative to be tested was prepared in solution in PBS containing 1% ethanol at a concentration of 1 mM.
The following reagents were mixed together in a spectrophotometer cell:
500 μl of tyrosine solution,
390 μl of phosphate buffer,
10 μl of fungal tyrosinase solution,
100 μl of solution of test derivative or of PBS/1% ethanol (control).
The mixture was then incubated at a temperature of 37° C. and the dopachrome formed was measured continuously for at least 30 minutes.
The results obtained are expressed as a % of activation of the tyrosinase activity relative to the value obtained with the control (in the absence of derivative).

[2] = system: hair pigmentation; conditions: bald men treated with this compound; cited from earlier work

Row | SMILES | Activation (% of activation of the tyrosinase activity relative to the control) [1] | effect on hair pigmentation [2]
1 | CCNc1cc(N(C)C)nc(NCC)[n+]1[O-] [2,4-bis-ethylamino-6-dimethylaminopyrimidine 3-oxide] | 60% | 
2 | CNc1cc(N(C)C)nc(NC)[n+]1[O-] [2,4-bis-methylamino-6-dimethylaminopyrimidine 3-oxide] | 61% | 
3 | CCCNc1cc(N(C)C)nc(NCCC)[n+]1[O-] [2,4-bis-propylamino-6-dimethylaminopyrimidine 3-oxide] | 55% | 
4 | CCCNc1cc(N2CCCCC2)nc(NCCC)[n+]1[O-] [2,4-bis-propylamino-6-piperidinopyrimidine 3-oxide] | 57% | 
5 | Nc1nc(N2CCCCC2)cc(NCCO)[n+]1[O-] [2-amino-4-(2-hydroxyethylamino)-6-piperidinopyrimidine 3-oxide] | 43% | 
6 | Nc1nc(N2CCCCC2)cc(NCc2ccccc2)[n+]1[O-] [2-amino-4-benzylamino-6-piperidinopyrimidine 3-oxide] | 45% | 
7 | CCCCNc1cc(N(C)C)nc(N)[n+]1[O-] [2-amino-4-butylamino-6-dimethylaminopyrimidine 3-oxide] | 51% | 
8 | CCCCCCNc1cc(N2CCCCC2)nc(N)[n+]1[O-] [2-amino-4-hexylamino-6-piperidinopyrimidine 3-oxide] | 47% | 
9 | CC(C)Nc1cc(N(C)C)nc(N)[n+]1[O-] [2-amino-4-isopropylamino-6-dimethylaminopyrimidine 3-oxide] | 46% | 
10 | CNc1cc(N2CCCCC2)nc(N)[n+]1[O-] [2-amino-4-methylamino-6-piperidinopyrimidine 3-oxide] | 50% | 
11 | CCCNc1cc(N(C)C)nc(N)[n+]1[O-] [2-amino-4-propylamino-6-dimethylaminopyrimidine 3-oxide] | 50% | 
12 | CCCNc1cc(N2CCCCC2)nc(N)[n+]1[O-] [2-amino-4-propylamino-6-piperidinopyrimidine 3-oxide] | 46% | 
13 | Nc1cc(N2CCCCC2)nc(N)[n+]1[O-] [Minoxidil, 2,4-diamino-6-piperidinopyrimidine 3-oxide, reference compound] | 41% | stimulatory effect on hair pigmentation
